Measurements from patent US20260085067A1, “CYCLIC SULFONAMIDE RIBONUCLEOTIDE REDUCTASE (RNR) INHIBITORS AND USES THEREOF” (Boundless Bio, Inc., priority 2022, published 2026).

Legend:
RNR (RNR1:RNR2 1:1) = molecular target: T1, RNR (RNR1:RNR2 1:1) (Homo sapiens, UniProt P23921); test: RNR enzyme activity, rapid-fire mass spectrometry (RF/MS) assay; format: biochemical; conditions: [RNR] 50 nM, 1:1 RNR1:RNR2; CDP 5 μM; ATP 1 mM; 37° C., 45 min; compounds screened up to 50 μM
T1 sequence (P23921 1-792): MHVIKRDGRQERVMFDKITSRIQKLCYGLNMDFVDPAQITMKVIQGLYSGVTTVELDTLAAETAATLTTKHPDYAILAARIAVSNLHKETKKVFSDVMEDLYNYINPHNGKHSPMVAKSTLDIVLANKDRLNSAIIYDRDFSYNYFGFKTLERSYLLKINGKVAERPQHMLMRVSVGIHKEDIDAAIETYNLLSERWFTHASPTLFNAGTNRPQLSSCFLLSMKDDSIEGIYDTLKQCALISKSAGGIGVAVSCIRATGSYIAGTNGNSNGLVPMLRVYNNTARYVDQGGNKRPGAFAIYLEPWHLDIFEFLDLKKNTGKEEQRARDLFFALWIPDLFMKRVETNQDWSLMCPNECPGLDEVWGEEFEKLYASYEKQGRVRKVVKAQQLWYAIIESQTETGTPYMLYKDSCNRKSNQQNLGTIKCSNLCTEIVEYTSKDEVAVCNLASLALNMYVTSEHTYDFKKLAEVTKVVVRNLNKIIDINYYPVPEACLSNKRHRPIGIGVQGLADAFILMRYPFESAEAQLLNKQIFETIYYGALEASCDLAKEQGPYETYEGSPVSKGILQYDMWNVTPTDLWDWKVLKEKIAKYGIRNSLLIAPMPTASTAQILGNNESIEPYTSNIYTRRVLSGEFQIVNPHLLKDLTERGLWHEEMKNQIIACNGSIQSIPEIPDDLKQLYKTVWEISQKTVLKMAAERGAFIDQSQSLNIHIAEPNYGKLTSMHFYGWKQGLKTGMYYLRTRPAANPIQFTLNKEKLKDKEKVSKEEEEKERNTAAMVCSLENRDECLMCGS
How it was run: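 Human RNR (50 nM final, RNR1:RNR2 1:1) pre-incubated 15 min at room temperature, then reacted 45 min at 37 °C with 5 μM CDP and 1 mM ATP, no NADPH. Reaction quenched with 6% HCOOH; product quantified by rapid-fire mass spectrometry.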

[1] = system: pCHK1 (S345) in Colo320 DM cells; test: Alphalisa assay, detection of pCHK1 (S345) in Colo320 DM cells; format: cell-based, human; conditions: Homo sapiens, COLO 320DM, compound overnight (approximately 16 hours)
How it was run: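 Phospho-CHK1 (S345) read by AlphaLisa SureFire in lysates of human colorectal Colo320 DM cells. Compound treatment ran overnight (~16 h, 37 °C, DMSO <0.5%) on cells seeded the day before.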

human hepatocytes = test: Human hepatocyte stability assay; format: in vitro ADME; conditions: 0.5×10^6 viable cells/ml, time points 0.5 and 60 minutes
Procedure: 1. 10 mM stock solutions of test compounds and positive control were prepared in DMSO. Thawing medium and supplement incubation medium (serum-free) were placed in a 37° C. water bath for at least 15 minutes prior to use.
2. Stock solutions were diluted to 100 μM by combining 198 μL acetonitrile and 2 μL of 10 mM stock solution. Verapamil was use as positive control in the assay.
3. Vials of cryopreserved human hepatocytes were removed from storage, while ensuring that vials remain at cryogenic temperatures. The pressure was removed by loosening and re-tightening the cap. The vials were thawed in a 37° C. water bath with gentle shaking. Vials remained in the water bath until all ice crystals had dissolved and were no longer visible. Vials were sprayed with 70% ethanol before being transferred to a biosafety cabinet. Then the contents were poured into a 50 mL thawing medium conical tube. Vials were centrifuged at 100 g for 10 minutes at room temperature. Thawing medium was aspirated and hepatocytes were re-suspended with serum-free incubation medium to yield ˜1.5×10^6 cells/mL.
4. Cell viability and density were counted using Cellometer® Vision, and then cells were diluted with serum-free incubation medium to a working cell density of 0.5×10^6 viable cells/ml.
5. Aliquots of 198 μL hepatocytes were dispensed into each well of a 96-well non-coated plate. The plate was placed in the incubator on an orbital shaker at 500 rpm for approximately 10 minutes.
6. Aliquots of 2 μL of the 100 μM test compounds or verapamil were added into respective wells of the non-coated 96-well plate to start the reaction. This assay was performed in duplicate. The plate was incubated in the incubator on an orbital shaker at 500 rpm for the designed time points.
7.25 μL of contents were transferred and mixed with 5 volumes (125 μL) of cold acetonitrile with IS (100 nM alprazolam, 200 nM caffeine, 100 nM labetalol and 100 nM tolbutamide) to terminate the reaction at time points of 0.5 and 60 minutes. Samples were centrifuged for 30 minutes at 3,220 g. Then transfer 100 μL of the supernatant to new 96-well plates for analysis. Add 100 μL of distilled water to each sample and mix for analysis by LC-MS/MS.
All calculations were carried out using Microsoft Excel. Peak areas were determined from extracted ion chromatograms. The in vitro half-life (tin) of the parent compound was determined by regression analysis of the percent parent disappearance vs. time curve. • a. The in vitro half-life (in vitro tin) was determined from the slope value: in vitro t1/2=0.693/k • b. Conversion of the in vitro tin (in min) into the in vitro intrinsic clearance (in vitro CLint, in μL/min/10^6 cells) was done using the following equation: […]

IC50 (RNR (RNR1:RNR2 1:1)) [nM] | IC50 [1] [nM] | SMILES | Clhep (human hepatocytes)
< 20 | ≤ 1000 | Cc1ccc(F)c([C@@H](C)[C@@H](c2n[nH]c(=O)o2)N2CN(CCO)c3cc(Cl)ccc3S2(=O)=O)c1C [Example 50, 5-((1S,2R)-1-(6-chloro-4-(2-hydroxyethyl)-1,1-dioxido-3,4-dihydro-2H-benzo[e][1,2,4]thiadiazin-2-yl)-2-(6-fluoro-2,3-dimethylphenyl)propyl)-1,3,4-oxadiazol-2 (3H)-one] | A (0 ml/min/kg ≤ Clhep ≤ 10 ml/min/kg)
< 20 | ≤ 1000 | CC(=O)c1cc(Cl)cc2c1S(=O)(=O)N([C@H](c1n[nH]c(=O)o1)[C@H](C)c1c(F)ccc(C)c1C)CCO2 [Example 60, 5-((1S,2R)-1-(9-acetyl-7-chloro-1,1-dioxido-3,4-dihydro-2H-benzo[b][1,4,5]oxathiazepin-2-yl)-2-(6-fluoro-2,3-dimethylphenyl)propyl)-1,3,4-oxadiazol-2 (3H)-one] | B (10 ml/min/kg < Clhep ≤ 20 ml/min/kg)
< 20 | ≤ 1000 | CC(=O)c1cc(Cl)cc2c1S(=O)(=O)N([C@H](c1n[nH]c(=O)o1)[C@H](C)c1c(F)ccc(C)c1C)CN2C [Example 75, 5-((1S,2R)-1-(8-acetyl-6-chloro-4-methyl-1,1-dioxido-3,4-dihydro-2H-benzo[e][1,2,4]thiadiazin-2-yl)-2-(6-fluoro-2,3-dimethylphenyl)propyl)-1,3,4-oxadiazol-2 (3H)-one] | B (10 ml/min/kg < Clhep ≤ 20 ml/min/kg)
